Nine compounds from US20260285853A1, “COMPOUNDS AND METHODS FOR MODULATING SPLICING” (REMIX THERAPEUTICS INC., priority 2023, published 2026) can be followed below.

As a reminder, the GI50 is the concentration giving 50% growth inhibition. Broadly, the AC50 is the concentration giving half of the maximal activity seen. Usually IC50 stands for the concentration needed to halve the response being measured.

Common to all, as to format: cell-based
Experiment [1] has as its system SH-SY5Y (human neuroblastoma) cells. Nature of the experiment: Cell viability, Cell Titer Glo 2.0 assay. The settings on record: read-out: Viability SHSY5Y.3 GI50. Summed up:
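SH-SY5Y neuroblastoma cells are exposed to test compounds for 72 hours at 37 °C and 5% CO2, with final DMSO held at 0.1%. Cell viability is then measured with the CellTiter-Glo 2.0 assay.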
In general terms: Cellular ATP, detected with luciferase, serves as a proxy for viable cell number.

Experiment [2] deals with MYB mRNA. Nature of the experiment: Splicing RT-qPCR assay, canonical (CJ) and alternative (AJ) junction mRNA, K562 cells. The note with it: Homo sapiens, K562.3 cells, 24 hours; for AC50: read-out: MYB AJ (AC50, increase in AJ mRNA); for IC50: read-out: MYB CJ (IC50, decrease in CJ mRNA). The method, boiled down: (§1)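 Splicing switches are measured in K562 cells exposed to compound for 24 h (top 10 uM final, 11 points, 3-fold). Lysates go straight into one-step RT-qPCR, and transcript levels are normalized to GAPDH or GUSB and to DMSO before conversion to percentage response using fixed ΔCt assay windows.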
A general note: Quantitative PCR measures a nucleic acid by following its amplification.

The subject of experiment [3] is HTT mRNA. Described as above. The note with it: Homo sapiens, K562.3 cells, 24 hours; for AC50: read-out: HTT AJ (AC50, increase in AJ mRNA); for IC50: read-out: HTT CJ (IC50, decrease in CJ mRNA). Summed up:
as §1

For experiment [4], the system named is HTT mRNA. Description: Splicing RT-qPCR assay (THP), Table 2A.
Experiment [5] relates to MYB mRNA. Nature of the experiment: Splicing RT-qPCR assay (THP), Table 2A.
The mark [6] stands for this setting: Table 2A (THP), AJ mRNA increase, read-out: HTT AJ (increase in alternative junction mRNA, AC50).
[7] abbreviates: Table 2A (THP), CJ mRNA decrease, read-out: HTT CJ (decrease in canonical junction mRNA, IC50).
Setting [8] is: Table 2A (THP), AJ mRNA increase, read-out: MYB AJ (increase in alternative junction mRNA, AC50).
Setting [9] is: Table 2A (THP), CJ mRNA decrease, read-out: MYB CJ (decrease in canonical junction mRNA, IC50).
Setting [10] is: Table 2A, THP, HTT alternative junction (AJ) mRNA, read-out: HTT AJ (AC50, increase in alternative junction mRNA).
Where [11] appears, read: Table 2A, THP, HTT canonical junction (CJ) mRNA, read-out: HTT CJ (IC50, decrease in canonical junction mRNA).
The mark [12] stands for this setting: Table 2A, THP, MYB alternative junction (AJ) mRNA, read-out: MYB AJ (AC50, increase in alternative junction mRNA).
The mark [13] stands for this setting: Table 2A, THP, MYB canonical junction (CJ) mRNA, read-out: MYB CJ (IC50, decrease in canonical junction mRNA).

Consider `CCNC1CCN(c2ccc(C(=O)Nc3cc(F)c4nc(COC)cn4c3)c3nn(C)cc23)CC1` [Compound 284, 4-[4-(ethylamino)-1-piperidyl]-N-[8-fluoro-2-(methoxymethyl)imidazo[1,2-a]pyridin-6-yl]-2-methyl-indazole-7-carboxamide], for which the GI50 in experiment [1] was more than 10000 nM. Further, the AC50 in experiment [2] is 1000 to 10000 nM; in experiment [3], more than 10000 nM; in experiment [4] (setting [6]) it was more than 10000 nM; in experiment [5] (setting [8]), 1000 to 10000 nM. Besides, the IC50 was 1000 to 10000 nM in experiment [2], 1000 to 10000 nM in experiment [3], more than 10000 nM in experiment [4] (setting [7]) and more than 10000 nM in experiment [5] (setting [9]).
In the case of `COCCN[C@@H]1CCN(c2cc(O)c(C(=O)Nc3cc(F)c4nc(C)cn4c3)c3nn(C)cc23)C1` [Compound 285, N-(8-fluoro-2-methyl-imidazo[1,2-a]pyridin-6-yl)-6-hydroxy-4-[(3R)-3-(2-methoxyethylamino)pyrrolidin-1-yl]-2-methyl-indazole-7-carboxamide], in experiment [1], the GI50 was 1000 to 10000 nM. Moreover, the AC50 is less than 100 nM in experiment [2], more than 10000 nM in experiment [3], more than 10000 nM in experiment [4] (setting [6]) and less than 100 nM in experiment [5] (setting [8]). Moreover, the IC50 in experiment [2] was less than 100 nM; in experiment [3] it was more than 10000 nM; in experiment [4] (setting [7]), more than 10000 nM; in experiment [5] (setting [9]), less than 100 nM.
With `Cc1cn2cc(NC(=O)c3c(O)cc(N4CC[C@@H](NC5CC5)C4)c4cn(C)nc34)cc(F)c2n1` [Compound 288, 4-[(3R)-3-(cyclopropylamino)-pyr-rolidin-1-yl]-N-(8-fluoro-2-methyl-imidazo[1,2-a]pyridin-6-yl)-6-hydroxy-2-methyl-indazole-7-carboxamide], the GI50 in experiment [1] lay in the range of 100 to 1000 nM. For the same compound, the AC50 was less than 100 nM in experiment [2], more than 10000 nM in experiment [3], more than 10000 nM in experiment [4] (setting [6]) and less than 100 nM in experiment [5] (setting [8]). In addition, the IC50 in experiment [2] was less than 100 nM; in experiment [3], more than 10000 nM; in experiment [4] (setting [7]) it was more than 10000 nM; in experiment [5] (setting [9]) it was less than 100 nM.
In the case of `Cn1cc2cc(NC(=O)c3c(O)cc(N4CC[C@@H](NC5CC5)C4)c4cn(C)nc34)cc(F)c2n1` [Compound 291, 4-[(3R)-3-(cyclopropylamino)pyrrolidin-1-yl]-N-(7-fluoro-2-methyl-indazol-5-yl)-6-hydroxy-2-methyl-indazole-7-carboxamide], the GI50 in experiment [1] lay in the range of 100 to 1000 nM. Further, the AC50 is less than 100 nM in experiment [2], 1000 to 10000 nM in experiment [3], 1000 to 10000 nM in experiment [4] (setting [6]) and less than 100 nM in experiment [5] (setting [8]). The IC50 in experiment [2] was less than 100 nM; in experiment [3] it was 1000 to 10000 nM; in experiment [4] (setting [7]), more than 10000 nM; in experiment [5] (setting [9]), less than 100 nM.
On to `CCN[C@@H]1CCN(c2cc(O)c(C(=O)Nc3cc(F)c4nn(C)cc4c3)c3nn(C)cc23)C1` [Compound 294, 4-[(3R)-3-(ethylamino)-pyrrolidin-1-yl]-N-(7-fluoro-2-methyl-indazol-5-yl)-6-hydroxy-2-methyl-indazole-7-carboxamide], for which the concentration for 50% growth inhibition (GI50) in experiment [1] lay within 100 to 1000 nM. Further, the AC50 was less than 100 nM in experiment [2], 1000 to 10000 nM in experiment [3], 1000 to 10000 nM in experiment [4] (setting [6]) and less than 100 nM in experiment [5] (setting [8]). Further, the IC50 in experiment [2] was less than 100 nM; in experiment [3], 100 to 1000 nM; in experiment [4] (setting [7]), 1000 to 10000 nM; in experiment [5] (setting [9]), less than 100 nM.
For `Cc1cn2cc(NC(=O)c3ccc(N4CCC(NC5CC5)CC4)c4cn(C)nc34)nc2c(C)n1` [Compound 297, 4-[4-(cyclopropylamino)-1-piperidyl]-N-(6,8-dimethylimidazo[1,2-a]pyrazin-2-yl)-2-methyl-indazole-7-carboxamide], the GI50 in experiment [1] was 1000 to 10000 nM. The AC50 is 100 to 1000 nM in experiment [2], more than 10000 nM in experiment [3], more than 10000 nM in experiment [4] (setting [6]) and 100 to 1000 nM in experiment [5] (setting [8]). The IC50 in experiment [2] is 100 to 1000 nM; in experiment [3], more than 10000 nM; in experiment [4] (setting [7]) it was more than 10000 nM; in experiment [5] (setting [9]), 1000 to 10000 nM.
As to `COc1c(NC(=O)c2ncc(N3CCNCC3)c3cn[nH]c23)cn2cc(C)nc2c1F` [Compound 606, N-(8-fluoro-7-methoxy-2-methyl-imidazo[1,2-a]pyridin-6-yl)-4-piperazin-1-yl-1H-pyrazolo[3,4-c]pyridine-7-carboxamide], the GI50 in experiment [1] is 100 to 1000 nM. Besides, the AC50 in experiment [2] was more than 10000 nM; in experiment [3], more than 10000 nM; in experiment [4] (setting [10]), more than 10000 nM; in experiment [5] (setting [12]), 1000 to 10000 nM. In addition, the IC50 in experiment [2] was more than 10000 nM; in experiment [3], more than 10000 nM; in experiment [4] (setting [11]) it was more than 10000 nM; in experiment [5] (setting [13]) it was 1000 to 10000 nM.
On to `COc1c(NC(=O)c2c(F)cc(N3CCNCC3)c3cn[nH]c23)cn2cc(C)nc2c1F` [Compound 607, 6-fluoro-N-(8-fluoro-7-methoxy-2-methyl-imidazo[1,2-a]pyridin-6-yl)-4-piperazin-1-yl-1H-indazole-7-carboxamide], for which the GI50 in experiment [1] was in the range of 100 to 1000 nM. The AC50 in experiment [2] is less than 100 nM; in experiment [3], 1000 to 10000 nM; in experiment [4] (setting [10]), 1000 to 10000 nM; in experiment [5] (setting [12]), less than 100 nM. Besides, the IC50 was less than 100 nM in experiment [2], 100 to 1000 nM in experiment [3], 100 to 1000 nM in experiment [4] (setting [11]) and less than 100 nM in experiment [5] (setting [13]).
For the compound `Cc1cn2cc(NC(=O)c3ccc(N4C[C@@H](C)N[C@@H](C)C4)c4c3nnn4C)cc(F)c2n1` [Compound 635], in experiment [1], the GI50 is 1000 to 10000 nM. Moreover, the concentration at half-maximal activity (AC50) in experiment [2] is 100 to 1000 nM; in experiment [3], 1000 to 10000 nM; in experiment [4] (setting [10]), 1000 to 10000 nM; in experiment [5] (setting [12]) it was 100 to 1000 nM. Further, the IC50 in experiment [2] lay within 100 to 1000 nM; in experiment [3], 1000 to 10000 nM; in experiment [4] (setting [11]) it was 1000 to 10000 nM; in experiment [5] (setting [13]), 100 to 1000 nM.
